Experimental data: patent US20250101023A1, “HETEROARYL DERIVATIVE AND USES THEREOF” (IUCF-HYU (INDUSTRY-UNIVERSITY COOPERATION FOUNDATION …, priority 2022, published 2025)

Legend:
[1] = test system: cyclinK; assay: Western blot, cyclinK degradation; type: cell-based; settings: SK-Br3 and HCC1954 cell lines, 40 and 200 nM, 2 hours
[2] = target: STK32B/YANK2 (Homo sapiens (Human), UniProt Q9NY57); assay: Kinome-wide profiling; type: biochemical; settings: read-out: % Residual Activity (mean)
[3] = target: CDK17/cyclin Y (PCTK2) (Homo sapiens (Human), UniProt Q00537); assay: Kinome-wide profiling; type: biochemical; settings: read-out: % Residual Activity (mean)
[4] = target: TLK2 (Homo sapiens (Human), UniProt Q86UE8); assay: Kinome-wide profiling; type: biochemical; settings: read-out: % Residual Activity (mean)
[5] = target: MARK3 (Homo sapiens (Human), UniProt P27448); assay: Kinome-wide profiling; type: biochemical; settings: read-out: % Residual Activity (mean)
[6] = target: CK1a1 (Homo sapiens (Human), UniProt P48729); assay: Kinome-wide profiling; type: biochemical; settings: read-out: % Residual Activity (mean)
[7] = target: SRMS (Homo sapiens (Human), UniProt Q9H3Y6); assay: Kinome-wide profiling; type: biochemical; settings: read-out: % Residual Activity (mean)
[8] = target: CDK3/cyclin E (Homo sapiens (Human), UniProt Q00526); assay: Kinome-wide profiling; type: biochemical; settings: read-out: % Residual Activity (mean)
Sequence of CDK3/cyclin E (Q00526 whole entry): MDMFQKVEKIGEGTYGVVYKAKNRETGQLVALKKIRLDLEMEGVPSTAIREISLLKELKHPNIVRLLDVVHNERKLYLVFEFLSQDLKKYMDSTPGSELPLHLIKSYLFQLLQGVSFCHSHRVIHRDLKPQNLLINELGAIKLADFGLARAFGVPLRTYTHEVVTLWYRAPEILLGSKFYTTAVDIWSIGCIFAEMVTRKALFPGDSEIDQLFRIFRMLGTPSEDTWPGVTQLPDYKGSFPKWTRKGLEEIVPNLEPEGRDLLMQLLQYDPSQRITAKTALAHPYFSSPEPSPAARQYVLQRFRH
Sequence of CDK3/cyclin E (P24864 whole entry partner): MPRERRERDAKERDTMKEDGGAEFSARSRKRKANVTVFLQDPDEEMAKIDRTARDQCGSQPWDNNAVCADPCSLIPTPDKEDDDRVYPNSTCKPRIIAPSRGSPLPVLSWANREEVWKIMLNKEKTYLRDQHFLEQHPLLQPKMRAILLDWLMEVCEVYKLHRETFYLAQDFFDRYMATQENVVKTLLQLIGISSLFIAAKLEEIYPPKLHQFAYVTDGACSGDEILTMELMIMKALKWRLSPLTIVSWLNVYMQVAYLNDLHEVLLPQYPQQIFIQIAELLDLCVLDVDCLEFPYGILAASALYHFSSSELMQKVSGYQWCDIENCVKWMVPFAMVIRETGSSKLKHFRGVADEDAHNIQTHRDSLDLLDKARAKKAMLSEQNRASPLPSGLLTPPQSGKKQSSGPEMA

[9] = target: EPHB4 (Homo sapiens (Human), UniProt P54760); assay: Kinome-wide profiling; type: biochemical; settings: read-out: % Residual Activity (mean)
[10] = target: TYK1/LTK (Homo sapiens (Human), UniProt P29376); assay: Kinome-wide profiling; type: biochemical; settings: read-out: % Residual Activity (mean)
[11] = target: JNK3 (Homo sapiens (Human), UniProt P53779); assay: Kinome-wide profiling; type: biochemical; settings: read-out: % Residual Activity (mean)
[12] = target: CAMKK2 (Homo sapiens (Human), UniProt Q96RR4); assay: Kinome-wide profiling; type: biochemical; settings: read-out: % Residual Activity (mean)
[13] = test system: HCC1954 xenograft; assay: HCC1954 xenograft model, anticancer efficacy; type: in vivo, mouse; settings: 20 mg/kg and 40 mg/kg, i.p. twice a week
Protocol: A mouse efficacy experiment was conducted after obtaining approval from the Laboratory Animal Ethics Committee of GenNBio (Review No.: GN-IACUC-Research 22-02-07). SK-Br3 and HCC-1954 cells (1×10^6 cells each) mixed with Matrigel (BD Biosciences) were […] injected into 5-week-old female Balb/c nude mice (Orient Bio, Seongnam, Republic of Korea). After tumors reached a size of about 100 mm^3, the compound, trastuzumab (20 mg/kg), and the like were intraperitoneally injected into mice (n=8 per group)(vehicle: 8% DMSO, 4% Tween-80, 88% PBS). The tumor size was measured twice weekly for about 4 weeks and calculated as follows. Volume (mm^3)=(a×b^2)/2; “a”, maximum diameter; “b”, vertical diameter

[14] = target: BRSK2 (Homo sapiens (Human), UniProt Q8IWQ3); assay: Kinome-wide profiling; type: biochemical; settings: read-out: % Residual Activity (mean)
[15] = target: EPHA4 (Homo sapiens (Human), UniProt P54764); assay: Kinome-wide profiling; type: biochemical; settings: read-out: % Residual Activity (mean)
[16] = target: DDR2 (Homo sapiens (Human), UniProt Q16832); assay: Kinome-wide profiling; type: biochemical; settings: read-out: % Residual Activity (mean)
[17] = target: ERN1/IRE1 (Homo sapiens (Human), UniProt O75460); assay: Kinome-wide profiling; type: biochemical; settings: read-out: % Residual Activity (mean)
Sequence of ERN1/IRE1 (O75460 19-977): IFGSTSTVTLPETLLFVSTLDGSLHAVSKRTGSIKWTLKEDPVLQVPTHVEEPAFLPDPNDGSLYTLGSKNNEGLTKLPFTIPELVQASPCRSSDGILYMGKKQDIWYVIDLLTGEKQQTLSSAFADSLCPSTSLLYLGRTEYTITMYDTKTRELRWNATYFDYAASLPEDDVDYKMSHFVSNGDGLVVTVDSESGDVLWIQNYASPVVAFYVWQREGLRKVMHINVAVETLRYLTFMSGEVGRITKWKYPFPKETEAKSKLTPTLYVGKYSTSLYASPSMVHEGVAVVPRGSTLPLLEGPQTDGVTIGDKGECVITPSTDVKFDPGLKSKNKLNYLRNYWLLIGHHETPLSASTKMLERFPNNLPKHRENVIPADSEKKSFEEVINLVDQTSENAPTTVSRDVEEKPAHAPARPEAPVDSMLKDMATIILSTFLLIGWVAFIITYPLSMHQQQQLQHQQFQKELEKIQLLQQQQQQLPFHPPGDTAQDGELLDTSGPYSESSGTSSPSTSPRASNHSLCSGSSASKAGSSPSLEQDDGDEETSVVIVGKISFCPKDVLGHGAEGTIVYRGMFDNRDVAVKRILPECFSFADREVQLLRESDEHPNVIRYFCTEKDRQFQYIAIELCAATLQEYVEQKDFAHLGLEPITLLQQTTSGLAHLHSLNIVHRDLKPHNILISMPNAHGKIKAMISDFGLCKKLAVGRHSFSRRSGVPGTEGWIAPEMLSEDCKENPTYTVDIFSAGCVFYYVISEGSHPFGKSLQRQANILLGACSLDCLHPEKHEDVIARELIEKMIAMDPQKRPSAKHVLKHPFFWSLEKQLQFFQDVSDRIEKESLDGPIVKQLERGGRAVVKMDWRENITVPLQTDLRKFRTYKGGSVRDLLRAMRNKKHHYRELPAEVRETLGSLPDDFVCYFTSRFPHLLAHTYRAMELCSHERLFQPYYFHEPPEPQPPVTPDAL

[18] = target: BMPR2 (Homo sapiens (Human), UniProt Q13873); assay: Kinome-wide profiling; type: biochemical; settings: read-out: % Residual Activity (mean)
[19] = target: ERN2/IRE2 (Homo sapiens (Human), UniProt Q76MJ5); assay: Kinome-wide profiling; type: biochemical; settings: read-out: % Residual Activity (mean)
Sequence of ERN2/IRE2 (Q76MJ5 35-926): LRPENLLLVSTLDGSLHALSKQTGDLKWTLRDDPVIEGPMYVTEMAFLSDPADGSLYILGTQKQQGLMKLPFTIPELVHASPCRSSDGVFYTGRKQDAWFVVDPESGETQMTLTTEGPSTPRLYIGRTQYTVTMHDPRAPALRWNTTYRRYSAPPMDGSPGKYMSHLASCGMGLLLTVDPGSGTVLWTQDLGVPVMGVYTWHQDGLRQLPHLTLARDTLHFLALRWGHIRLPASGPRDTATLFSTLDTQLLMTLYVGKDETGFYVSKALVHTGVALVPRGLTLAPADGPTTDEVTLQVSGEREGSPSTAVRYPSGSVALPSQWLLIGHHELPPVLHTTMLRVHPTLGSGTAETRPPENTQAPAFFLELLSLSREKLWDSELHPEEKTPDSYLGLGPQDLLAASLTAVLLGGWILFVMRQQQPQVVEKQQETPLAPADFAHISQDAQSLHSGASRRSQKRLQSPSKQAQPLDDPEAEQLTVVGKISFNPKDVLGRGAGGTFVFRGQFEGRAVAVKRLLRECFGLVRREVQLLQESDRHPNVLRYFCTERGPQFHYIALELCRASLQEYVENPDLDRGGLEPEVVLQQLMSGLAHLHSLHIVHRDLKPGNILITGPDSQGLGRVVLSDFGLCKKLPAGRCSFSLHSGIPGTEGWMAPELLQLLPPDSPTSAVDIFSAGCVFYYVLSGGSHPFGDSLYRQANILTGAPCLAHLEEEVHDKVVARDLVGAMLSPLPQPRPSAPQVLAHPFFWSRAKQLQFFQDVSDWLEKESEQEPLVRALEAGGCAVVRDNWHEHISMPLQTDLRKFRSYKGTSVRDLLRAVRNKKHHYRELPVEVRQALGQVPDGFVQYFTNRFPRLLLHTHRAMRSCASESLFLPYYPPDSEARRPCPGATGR

[20] = target: LYN B (Homo sapiens (Human), UniProt P07948); assay: Kinome-wide profiling; type: biochemical; settings: read-out: % Residual Activity (mean)
[21] = target: PLK3 (Homo sapiens (Human), UniProt Q9H4B4); assay: Kinome-wide profiling; type: biochemical; settings: read-out: % Residual Activity (mean)
[22] = target: PKG2/PRKG2 (Homo sapiens (Human), UniProt Q13237); assay: Kinome-wide profiling; type: biochemical; settings: read-out: % Residual Activity (mean)
[23] = target: PIM3 (Homo sapiens (Human), UniProt Q86V86); assay: Kinome-wide profiling; type: biochemical; settings: read-out: % Residual Activity (mean)
[24] = target: NLK (Homo sapiens (Human), UniProt Q9UBE8); assay: Kinome-wide profiling; type: biochemical; settings: read-out: % Residual Activity (mean)
Sequence of NLK (Q9UBE8 whole entry): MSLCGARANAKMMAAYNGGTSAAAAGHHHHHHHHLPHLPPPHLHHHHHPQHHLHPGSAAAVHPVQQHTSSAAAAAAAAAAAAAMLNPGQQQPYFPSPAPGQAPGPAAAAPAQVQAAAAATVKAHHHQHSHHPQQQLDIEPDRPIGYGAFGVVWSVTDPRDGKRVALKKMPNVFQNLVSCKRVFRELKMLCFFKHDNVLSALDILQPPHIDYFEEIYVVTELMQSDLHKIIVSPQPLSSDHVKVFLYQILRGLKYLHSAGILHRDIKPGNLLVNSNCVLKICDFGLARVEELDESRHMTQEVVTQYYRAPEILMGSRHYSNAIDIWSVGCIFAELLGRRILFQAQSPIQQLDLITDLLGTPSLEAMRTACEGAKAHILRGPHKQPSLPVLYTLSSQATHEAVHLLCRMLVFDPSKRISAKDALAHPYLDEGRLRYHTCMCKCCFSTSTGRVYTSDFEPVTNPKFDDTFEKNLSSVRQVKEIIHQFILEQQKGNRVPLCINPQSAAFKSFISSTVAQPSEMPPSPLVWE

[25] = target: RSK2 (Homo sapiens (Human), UniProt P51812); assay: Kinome-wide profiling; type: biochemical; settings: read-out: % Residual Activity (mean)
[26] = target: CYP3A4 (Homo sapiens (Human), UniProt P08684); assay: CYP inhibitory activity; type: in vitro ADME; settings: read-out: CYP % activity at 10 μM concentration 3A4
Protocol: (§1) 5 derivatives were evaluated for in vitro metabolic stability in liver microsomes from three different species (human, dog, mouse) and for inhibitory activity against 5 representative cytochrome P450 enzymes (CYPs)(Table 3). In terms of liver microsomal stability, the 2′-pyridyl group is more suitable than the α-methyl-4′-pyridyl group as the terminal aromatic group at position 6, and the aminopyrimidyl group is better than the aminopyridyl group as a substituent at position 2.

[27] = target: CYP2D6 (Homo sapiens (Human), UniProt P10635); assay: CYP inhibitory activity; type: in vitro ADME; settings: read-out: CYP % activity at 10 μM concentration 2D6
Sequence of CYP2D6 (P10635 whole entry): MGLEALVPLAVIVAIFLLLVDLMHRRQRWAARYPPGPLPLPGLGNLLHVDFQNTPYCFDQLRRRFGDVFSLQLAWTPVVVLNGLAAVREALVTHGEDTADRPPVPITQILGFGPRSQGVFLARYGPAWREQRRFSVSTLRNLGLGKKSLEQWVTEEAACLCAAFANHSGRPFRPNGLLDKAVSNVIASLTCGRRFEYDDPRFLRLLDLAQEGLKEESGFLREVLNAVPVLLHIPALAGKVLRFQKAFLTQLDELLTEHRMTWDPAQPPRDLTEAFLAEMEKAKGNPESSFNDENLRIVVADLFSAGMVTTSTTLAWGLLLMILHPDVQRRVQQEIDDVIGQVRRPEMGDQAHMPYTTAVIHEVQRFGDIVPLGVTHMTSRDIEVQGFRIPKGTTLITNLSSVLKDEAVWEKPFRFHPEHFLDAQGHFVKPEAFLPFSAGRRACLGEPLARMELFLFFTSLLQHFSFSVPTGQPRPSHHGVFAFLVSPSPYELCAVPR
Protocol: as §1

[28] = target: CYP2C9 (Homo sapiens (Human), UniProt P11712); assay: CYP inhibitory activity; type: in vitro ADME; settings: read-out: CYP % activity at 10 μM concentration 2C9
Protocol: as §1

[29] = target: VRK2 (Homo sapiens (Human), UniProt Q86Y07); assay: Kinome-wide profiling; type: biochemical; settings: read-out: % Residual Activity (mean)
[30] = target: CK1g2 (Homo sapiens (Human), UniProt P78368); assay: Kinome-wide profiling; type: biochemical; settings: read-out: % Residual Activity (mean)
Sequence of CK1g2 (P78368 whole entry): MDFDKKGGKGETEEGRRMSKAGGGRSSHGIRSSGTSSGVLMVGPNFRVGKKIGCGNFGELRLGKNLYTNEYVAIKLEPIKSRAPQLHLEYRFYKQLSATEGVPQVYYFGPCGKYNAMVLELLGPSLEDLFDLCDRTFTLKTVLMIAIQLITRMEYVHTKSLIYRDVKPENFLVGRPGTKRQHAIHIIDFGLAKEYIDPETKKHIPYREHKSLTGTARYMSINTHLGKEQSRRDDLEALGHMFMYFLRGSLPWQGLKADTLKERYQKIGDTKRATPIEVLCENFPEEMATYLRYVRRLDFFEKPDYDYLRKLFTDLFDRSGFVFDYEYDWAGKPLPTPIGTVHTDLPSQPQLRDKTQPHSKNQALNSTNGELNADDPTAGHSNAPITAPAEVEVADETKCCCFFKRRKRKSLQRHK

[31] = target: IKKe/IKBKE (Homo sapiens (Human), UniProt Q14164); assay: Kinome-wide profiling; type: biochemical; settings: read-out: % Residual Activity (mean)
Sequence of IKKe/IKBKE (Q14164 whole entry): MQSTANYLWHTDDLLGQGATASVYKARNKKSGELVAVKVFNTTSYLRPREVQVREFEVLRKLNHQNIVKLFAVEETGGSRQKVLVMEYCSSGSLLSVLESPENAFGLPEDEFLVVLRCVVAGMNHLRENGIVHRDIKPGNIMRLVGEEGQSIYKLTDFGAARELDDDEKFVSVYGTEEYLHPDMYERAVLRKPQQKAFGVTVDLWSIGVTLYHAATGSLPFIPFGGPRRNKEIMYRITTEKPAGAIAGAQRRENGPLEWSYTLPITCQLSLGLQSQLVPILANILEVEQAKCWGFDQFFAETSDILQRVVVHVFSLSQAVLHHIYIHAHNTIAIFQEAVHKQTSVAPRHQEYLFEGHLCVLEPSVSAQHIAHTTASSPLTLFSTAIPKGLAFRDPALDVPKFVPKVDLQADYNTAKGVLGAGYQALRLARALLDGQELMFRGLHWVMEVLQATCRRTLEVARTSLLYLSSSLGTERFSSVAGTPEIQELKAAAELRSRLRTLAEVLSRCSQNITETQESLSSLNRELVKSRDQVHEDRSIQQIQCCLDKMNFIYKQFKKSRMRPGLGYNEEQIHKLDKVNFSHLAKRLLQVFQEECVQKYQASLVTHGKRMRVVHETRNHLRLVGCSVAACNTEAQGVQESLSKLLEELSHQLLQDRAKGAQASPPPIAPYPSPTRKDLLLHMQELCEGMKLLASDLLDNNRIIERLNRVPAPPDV

With `CCn1cnc2c(NCc3ccc(-c4ccccn4)nc3)nc(-c3ccc(N)nc3)nc21` [Example 53, N-([2,2′-bipyridin]-5-ylmethyl)-2-(6-aminopyridin-3-yl)-9-ethyl-9H-purin-6-amine] the cyclinK degradation [1] was “induced cyclinK degradation”, the cyclinK degradation ([1]; listed as Compound 53) was “cyclinK levels were greatly suppressed in a dose-dependent manner” and the remaining activity at 10 µM [2] was 57.6%. It also gave a remaining activity at 10 µM [3] of 7.25%, a remaining activity at 10 µM [4] of 72.2% and a remaining activity at 10 µM [5] of 83.1%. The remaining activity at 10 µM [6] was 26.5%, the remaining activity at 10 µM [7] was 96.8% and the remaining activity at 10 µM [8] was 0.99%. For the same molecule, the remaining activity at 10 µM [9] was 23.2%, the remaining activity at 10 µM [10] was 73.6% and the remaining activity at 10 µM [11] was 48.7%. For the same molecule, the remaining activity at 10 µM [12] was 10.6%, the anticancer efficacy [13] was “dose-dependent anticancer efficacy” and the remaining activity at 10 µM [14] was 97.5%. It also gave a remaining activity at 10 µM [15] of 3.61%, a remaining activity at 10 µM [16] of 87.2% and a remaining activity at 10 µM [17] of 50.8%. The remaining activity at 10 µM [18] was 52.4%, the remaining activity at 10 µM [19] was 65.4% and the remaining activity at 10 µM [20] was 54.4%. The remaining activity at 10 µM [21] was 94.4%, the remaining activity at 10 µM [22] was 99.5% and the remaining activity at 10 µM [23] was 86.7%. For the same molecule, the remaining activity at 10 µM [24] was 24.8%, the remaining activity at 10 µM [25] was 69.4% and the activity at 10 µM [26] was 43%. For the same molecule, the activity at 10 µM [27] was 81%, the activity at 10 µM [28] was 57.9% and the remaining activity at 10 µM [29] was 96.6%. It also gave a remaining activity at 10 µM [30] of 27% and a remaining activity at 10 µM [31] of 80.1%.
